Common to all, as to format: cell-based, human
In assay [1] the test system is MCF-10A cells. Description: Apoptosis by flow cytometry (PE-Annexin-V / 7AAD). The note with it: 20 μM, 3 h. As for the experimental part:
(§1) MDA-MB-231 and MCF-10A cells (1.0 x 10^5/mL) were seeded in 12-well plates in a complete DMEM medium and incubated for 24 h. After this period the medium was removed and cells were incubated or not (control) with different concentrations of complex (4), for 3 h at 37°C and 5% CO2. After treatment the plate was centrifuged at 2000 rpm for 5 min at 4°C, washed with PBS and resuspended in 400 μL of binding buffer from the kit. Cells were incubated with 10 μL of 7AAD and 10 μL of PE-Annexin-V for 15 min protected from light. After the incubation period the supernatant was removed and 400 μL of binding buffer were added to the wells. Cells were then removed from the wells with the aid of a scraper and transferred to flow cytometry tubes. The reading was performed in Accuri C6 flow cytometer (BD Biosciences) and fluorescence emitted by each dye was quantified using CellQuest software (BD Biosciences).
A general note: A flow cytometer gives signals particle by particle.

The subject of assay [2] is MDA-MB-231 cells. Description: Apoptosis by flow cytometry (PE-Annexin-V / 7AAD). The note with it: MDA-MB-231, 20 μM, 3 h. As for the experimental part:
as §1

The test system of assay [3] is MMP-9. Description: Gelatin zymography of wound healing supernatants. The note with it: 24 h. As for the experimental part: MDA-MB-231 cells (1.0 x 10^5/well) were seeded into 12-wells culture plates and cultured in a medium containing FBS 10% to near confluence (80%) of the cell monolayer. Monolayers were carefully wounded using a pipette tip, and any cellular debris present was removed by washing with PBS. The wounded monolayers were then incubated in serum-free medium containing 2.5, 5, 10 and 20 μM of complex (4) for 24 h. After this time, supernatants of the wound healing assay were collected and tested for MMP secretion as previously described. Briefly, equal amounts of total protein ([…]) were subjected to electrophoresis. Zymography gels consisted of 10% polyacrylamide impregnated with gelatin at a final concentration of 1% in the presence of sodium dodecyl sulfate (SDS) under non-reducing conditions. […] Gels were then stained with coomassie brilliant blue for 30 min and destained in methanol and acetic acid for 20 min. Gelatin degrading enzymes were visualized as clear white bands against a blue background, indicating proteolysis of the substrate protein. The molecular mass of gelatinolytic activities was determined by comparison to reference protein molecular mass marker PageRuler Prestained Protein Ladder (Thermo Fisher Scientific). Activity bands were identified following the previous description according to their molecular weights.

Assay [4] deals with MDA-MB-231 cells. As to the kind of experiment: Colony formation (clonogenic) assay. The note with it: 3 h treatment, 10 days. As for the experimental part:
Exponentially growing MDA-MB-231 cells were harvested, counted and seeded (300 cells/plate) into Petri dishes. Cells were allowed to grow at 37°C in 5% CO2 overnight and then, treated with different concentrations of complex (4) for 3 h. After this time, the medium was changed to a fresh medium without any complex. After incubation for additional 10 days the cells were rinsed with PBS, fixed with methanol and acid acetic 3:1 for 5 min and stained with methanol and crystal violet 5% for 15min. Relative survival was calculated from the number of single cells that formed colonies of >50 cells on the tenth day.

In assay [5] the test system is Bax, Caspase-3 and Bcl-2 gene expression in MDA-MB-231 cells. As to the kind of experiment: RT-qPCR of apoptosis related genes. The note with it: 40 μM, 3 h. As for the experimental part:
MDA-MB-231 cells (1.0 x 10^6/plate) were incubated for 3 h with (20 and 40 μM) or without (control) the complex (4) in Petri dishes (6 cm) at 37°C in a humidified incubator with 5% CO2. Total RNA was extracted using Trizol reagent (Invitrogen). cDNAs were synthesized using Enhanced Avian RT First Strand Synthesis kit (Sigma-Aldrich, St. Louis, MO, USA). A Rotor-Gene 6000 real-time rotary analyzer (Corbett Life Science, Australia) was used to amplify both target and internal control templates (1 cycle at 95°C for 5 min and 40 amplification cycles at 95°C for 30 sec, 55°C for 30sec and 72°C for 45sec). In brief, 1 μL of reverse transcribed product template, 5 μL of SYBR Green JumpStart Taq ReadyMix (Sigma-Aldrich) and the gene-specific primer pairs at a final concentration of 500 nmol l^-1 for each primer, made 10 μL of reaction system. Primers used in the assays were: Caspase-3 (Forward: 5’GTG CTA CAA TGC CCC TGG AT3’; Reverse: 5’GCCCATTCATTTATTGCTTTC C3’), Bax (Forward: 5’CAT CCA GGA TCG AGC AGG3’; Reverse: 5’CGA TGC GCT TGA GAC ACT C3), Bcl-2 (Forward: 5’GGT GGG AGG GAG GAA GAA T3’; Reverse: 5’GCA GAG GCA TCA CAT CGA C3’) and β-actin (Forward: 5’GACGGCCAGGTCATCACCATT G3’; Reverse: 5’AGCACTGTGTTGGCGTACAGG 3’). Bax primers (NM_001291428.1) and Bcl-2 (NM_000633.2) were designed with Gene Runner available at http://generunner.net/ (version5.0.63 Beta), except for the primer Caspase-3 (NM_004346.3). For each gene, all samples were amplified simultaneously in duplicate in one assay run. The internal calibrator used as a basis to standardize the results of expression was the control group ΔCts average. Calibration was determined by ΔΔCt = ΔCt (sample) − ΔCt (calibrator). Gene expression was assessed by relative quantification, using the formula 2-ΔΔCt and β-actin as internal control. Data represent three assays in duplicate. A blank with water, primers and SYBR Green instead of template sample was performed.
In general terms: In qPCR the cycle at which signal appears reflects the starting amount.

Assay [6] concerns MCF-10A cells. As to the kind of experiment: Cell morphology (inverted microscope). The note with it: 50 μM, 24 h. As for the experimental part:
(§2) Exponentially growing MDA-MB-231, MCF-7 or MCF-10A cells were harvested, counted and seeded (1x10^5 cells/mL) and plated on sterile 12-well plates for 24 h. Cells were allowed to grow at 37°C in 5% CO2 overnight and then, treated or not (control) with different concentrations of the complexes (1–4) for 2 and 24 h. Cell morphology was examined under an inverted microscope (Nikon, T5100) with amplification of 100×.
(§3) In this work the cytotoxicity of the complexes was evaluated against the MDA-MB-231, MCF-7 and MCF-10A cells by morphology, clonogenic and MTT assays (Fig 2, Table 1). To investigate the effects on cell morphology, the complexes were incubated with cells at concentrations of 25 and 50 μM for 24 h.

Assay [7] concerns MDA-MB-231 cells. Description: Cell morphology (inverted microscope). The note with it: MDA-MB-231, 50 μM, 24 h. As for the experimental part:
as §2, §3

The record followed here is article PMC5595280, “Cytotoxicity and anti-tumor effects of new ruthenium complexes on triple negative breast cancer cells” (PLoS ONE, 2017).

The compound `CC(=O)[O-].F[P-](F)(F)(F)(F)F.[Ru+2].c1ccc(-c2ccccn2)nc1.c1ccc(P(CCCCP(c2ccccc2)c2ccccc2)c2ccccc2)cc1` [Complex (4), [Ru(CH3CO2)(dppb)(bipy)]PF6] returned a cells suffering apoptosis in assay [1] of 14.9%. Besides, in assay [2], the cells suffering apoptosis stood at 74.4%. In assay [3] (20 μM), the “inhibition of expression of MMP-9 compared to untreated control” value is recorded as 60%. Also, the “effect on expression of MMP-9” value in assay [3] (2.5, 5 and 10 μM) was “did not inhibit the expression of MMP-9”. Further, in assay [4] (20 μM), the “effect on colony formation” value is “completely abolished the capacity of breast tumor cells to form colonies”. In addition, the “effect on colony number and size” value in assay [4] (2.5, 5, 10 and 20 μM) is “significantly inhibited the colony number and size”. Moreover, in assay [5], the Bax gene expression result is on record as “upregulated”, the Bcl-2 gene expression result was “did not affect” and the Caspase-3 gene expression result was “upregulated”. Also, in assay [6], the “effect on cell morphology / cell density” value is “profoundly altered their morphology”. In addition, the “effect on cell morphology” value in assay [7] is recorded as “profoundly altered their morphology”.
